Test results taken from patent US20160193148A1, “LIPOSOMAL FORMULATIONS FOR THE TREATMENT OF BACTERIAL INFECTIONS” (UNIVERSITY OF GEORGIA RESEARCH FOUNDATION, INC., priority 2013, published 2016).

Tested on: R. equi
Assay: Intracellular killing of R. equi in J774.A1 macrophages
Format: cell-based, Rhodococcus equi
Settings: 10 μg/mL; J774.A1 macrophages infected with virulent R. equi; 4 experiments
Experimental: The efficacy of liposomal gentamicin compared with clarithromycin or rifampin for intracellular killing of R. equi in J774.A1 macrophages were studies in this example. […] The final concentration of gentamicin in the liposome formulations was measured and the percentage of encapsulation was calculated.
In vitro infection of J774A.1 macrophages with virulent R. equi and subsequent treatment with liposomal gentamicin (G-DP or G-PEG), clarithromycin (CLR), or rifampin (RIF) at a concentration of 10 μg/mL was performed using a published methodology (i.e. Berghaus et al. Plasma pharmacokinetics, pulmonary distribution, and in vitro activity of gamithromycin in foals. J Vet Pharmacol Ther. 2012 February; 35(1):59-66). […] Fold reduction in the number of intracellular R. equi compared to untreated cells in J774.A1 macrophages infected with virulent R. equi are presented in FIG. 2, showing mean (±SD) of 4 independent experiments.

SMILES	mean fold-reduction in the number of intracellular R. equi compared to untreated cells
CC[C@H]1OC(=O)[C@H](C)[C@@H](O[C@H]2C[C@@](C)(OC)[C@@H](O)[C@H](C)O2)[C@H](C)[C@@H](O[C@@H]2O[C@H](C)C[C@H](N(C)C)[C@H]2O)[C@](C)(OC)C[C@@H](C)C(=O)[C@H](C)[C@@H](O)[C@]1(C)O [CLR, clarithromycin]	1100 fold
CO[C@H]1/C=C/O[C@@]2(C)Oc3c(C)c(O)c4c(O)c(c(/C=N/N5CCN(C)CC5)c(O)c4c3C2=O)NC(=O)/C(C)=C\C=C\[C@H](C)[C@H](O)[C@@H](C)[C@@H](O)[C@@H](C)[C@H](OC(C)=O)[C@@H]1C [RIF, rifampin]	1500 fold
